This is an account of results in publication PMC9699427 (Viruses, 2022).

The CC50 is the concentration giving 50% cytotoxicity. In general, EC50 refers to the midpoint of the concentration-response curve. In general, IC50 refers to the concentration that inhibits the measured activity by half. Higher therefore signals a need for much substance.

Read-outs that look alike come from different tables or passages of the source.

Data set [1] concerns C8166 cells infected with HIV-1IIIB or TZM-bl cells infected with HIV-1YU-2. As to the kind of experiment: Combination antiviral activity assay (CompuSyn CI and DRI). Format: cell-based.
Data set [2] in a line: Cytotoxicity, MTT assay, C8166 cells. The data set is classed as cell-based. The following applies: human, three days, read-out: CC50 (Mean ± SD). In general terms: Tetrazolium assays rely on reduction of a dye to a coloured formazan, in cell work by metabolically active cells.
The nature of data set [3]: Cytotoxicity, MTT assay, MT-4 cells. Format: cell-based. The following applies: human, three days, read-out: CC50 (Mean ± SD).
The nature of data set [4]: Cytotoxicity, MTT assay, H9/HIV-1IIIB cells. The data set is classed as cell-based. The following applies: human, three days, read-out: CC50 (Mean ± SD).
The nature of data set [5]: Cytotoxicity, MTT assay, PBMCs. Format: cell-based. The following applies: human, PBMC, seven days, read-out: CC50 (Mean ± SD).
The test system of data set [6] is HIV-1IIIB. As to the kind of experiment: Anti-HIV-1 activity, syncytia (CPE) count in C8166 cells. The data set is classed as cell-based. The following applies: Human immunodeficiency virus 1.
Data set [7] relates to HIV-1IIIB. In words: Anti-HIV-1 activity, MTT protection of MT-4 cells. Format: cell-based. The following applies: Human immunodeficiency virus 1, MT4, MT-4, MTT.
In data set [8] the test system is HIV-1IIIB chronically infected H9 cells. In words: HIV-1 replication in chronically infected H9/HIV-1IIIB cells, p24. The data set is classed as cell-based.
The subject of another data set is HIV-1Yu-2(G140S/Q148H). As to the kind of experiment: microbe, parasite or virus in culture. The data set is classed as cell-based. The following applies: Human immunodeficiency virus 1, TZM-bl.
The target in a further data set is CYP3A4M (Homo sapiens, UniProt P08684). In words: Cytochrome P450 inhibition, human liver microsomes, midazolam.
Chain of CYP3A4M (P08684 whole entry): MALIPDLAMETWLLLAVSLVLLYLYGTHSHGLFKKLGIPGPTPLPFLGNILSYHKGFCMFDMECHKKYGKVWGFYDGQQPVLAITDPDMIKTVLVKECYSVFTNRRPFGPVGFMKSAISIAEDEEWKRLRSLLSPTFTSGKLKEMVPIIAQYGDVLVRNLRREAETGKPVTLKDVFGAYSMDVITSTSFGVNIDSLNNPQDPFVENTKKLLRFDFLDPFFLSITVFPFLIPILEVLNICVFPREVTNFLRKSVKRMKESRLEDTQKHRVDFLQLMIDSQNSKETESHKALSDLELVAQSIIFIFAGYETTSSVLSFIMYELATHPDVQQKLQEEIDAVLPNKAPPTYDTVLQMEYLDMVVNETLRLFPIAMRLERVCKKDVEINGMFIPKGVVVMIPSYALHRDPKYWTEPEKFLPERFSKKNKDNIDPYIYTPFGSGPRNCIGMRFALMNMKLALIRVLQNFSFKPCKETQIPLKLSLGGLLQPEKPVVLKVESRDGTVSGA
In the next data set the target is T1, CYP1A2 (Homo sapiens, UniProt P05177).
T1 sequence (P05177 1-516): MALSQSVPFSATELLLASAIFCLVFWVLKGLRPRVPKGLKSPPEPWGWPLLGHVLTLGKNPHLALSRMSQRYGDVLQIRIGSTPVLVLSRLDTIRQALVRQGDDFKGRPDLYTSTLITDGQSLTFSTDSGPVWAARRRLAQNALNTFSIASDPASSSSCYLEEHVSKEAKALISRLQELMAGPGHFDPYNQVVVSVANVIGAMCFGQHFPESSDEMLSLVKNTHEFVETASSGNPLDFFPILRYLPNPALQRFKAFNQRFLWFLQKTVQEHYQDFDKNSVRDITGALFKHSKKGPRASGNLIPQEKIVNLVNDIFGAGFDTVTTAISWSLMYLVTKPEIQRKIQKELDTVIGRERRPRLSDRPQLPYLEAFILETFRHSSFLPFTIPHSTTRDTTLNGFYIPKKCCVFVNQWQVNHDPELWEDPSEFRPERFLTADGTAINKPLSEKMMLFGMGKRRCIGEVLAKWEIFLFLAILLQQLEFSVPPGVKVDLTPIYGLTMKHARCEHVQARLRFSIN
As to the kind of experiment: Cytochrome P450 inhibition, human liver microsomes, phenacetin. (In general: Liver microsomes are a subcellular fraction often used to study metabolism.)

The target of the next data set is CYP2C9 (Homo sapiens, UniProt P11712). In words: Cytochrome P450 inhibition, human liver microsomes, diclofenac.
Chain of CYP2C9 (P11712 whole entry): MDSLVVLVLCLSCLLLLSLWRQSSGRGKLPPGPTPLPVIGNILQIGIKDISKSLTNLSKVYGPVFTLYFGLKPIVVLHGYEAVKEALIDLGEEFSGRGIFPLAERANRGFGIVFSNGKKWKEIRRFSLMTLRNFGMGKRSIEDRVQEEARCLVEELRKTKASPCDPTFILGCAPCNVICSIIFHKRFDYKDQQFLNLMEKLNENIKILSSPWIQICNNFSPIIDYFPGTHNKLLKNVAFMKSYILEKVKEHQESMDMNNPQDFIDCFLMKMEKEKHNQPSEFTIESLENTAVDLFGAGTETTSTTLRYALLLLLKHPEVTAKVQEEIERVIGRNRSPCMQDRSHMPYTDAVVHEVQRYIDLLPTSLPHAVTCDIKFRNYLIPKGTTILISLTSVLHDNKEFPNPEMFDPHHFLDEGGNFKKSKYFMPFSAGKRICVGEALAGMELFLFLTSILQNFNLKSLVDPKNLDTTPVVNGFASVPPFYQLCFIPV
The test system of data set [9] is HIV-1IIIB. In words: Anti-HIV-1 activity in the presence of human serum, p24 in C8166. The following applies: Human immunodeficiency virus 1, C8166, HIV-1IIIB.
A further data set concerns the target CYP2C19 (Homo sapiens, UniProt P33261). As to the kind of experiment: Cytochrome P450 inhibition, human liver microsomes, S-mephenytoin.
For another data set, the target named is CYP2D6 (Homo sapiens, UniProt P10635). As to the kind of experiment: Cytochrome P450 inhibition, human liver microsomes, dextromethorphan.
Chain of CYP2D6 (P10635 whole entry): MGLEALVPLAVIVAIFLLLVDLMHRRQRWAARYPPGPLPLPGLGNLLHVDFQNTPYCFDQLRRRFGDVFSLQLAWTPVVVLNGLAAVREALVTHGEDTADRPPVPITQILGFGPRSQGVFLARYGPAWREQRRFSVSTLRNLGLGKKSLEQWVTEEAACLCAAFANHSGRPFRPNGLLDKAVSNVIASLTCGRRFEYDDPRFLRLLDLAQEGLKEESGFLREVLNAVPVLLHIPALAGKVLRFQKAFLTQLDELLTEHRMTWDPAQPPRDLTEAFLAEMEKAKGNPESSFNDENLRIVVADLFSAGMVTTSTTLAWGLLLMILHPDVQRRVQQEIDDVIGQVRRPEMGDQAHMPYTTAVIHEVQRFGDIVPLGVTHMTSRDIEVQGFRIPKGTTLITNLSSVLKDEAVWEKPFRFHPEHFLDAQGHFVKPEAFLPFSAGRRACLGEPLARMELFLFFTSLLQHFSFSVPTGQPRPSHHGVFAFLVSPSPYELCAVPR
Setting [10] is: single drug in combination K-5a2+3TC.
[11] abbreviates: single drug in combination K-5a2+AZT.
The mark [12] stands for this setting: single drug in combination K-5a2+DRV.
Setting [13] is: single drug in combination K-5a2+DTG.
Setting [14] is: single drug in combination K-5a2+ETR.
Where [15] appears, read: single drug in combination K-5a2+FTC.
Where [16] appears, read: single drug in combination K-5a2+TDF.
[17] abbreviates: single drug in combination K-5a2+T-20.
The mark [18] stands for this setting: single drug in combination K-5a2+MVC.
The mark [19] stands for this setting: single drug in combination K-5a2+DC521022.

Chain of CYP2C19 (P33261 whole entry): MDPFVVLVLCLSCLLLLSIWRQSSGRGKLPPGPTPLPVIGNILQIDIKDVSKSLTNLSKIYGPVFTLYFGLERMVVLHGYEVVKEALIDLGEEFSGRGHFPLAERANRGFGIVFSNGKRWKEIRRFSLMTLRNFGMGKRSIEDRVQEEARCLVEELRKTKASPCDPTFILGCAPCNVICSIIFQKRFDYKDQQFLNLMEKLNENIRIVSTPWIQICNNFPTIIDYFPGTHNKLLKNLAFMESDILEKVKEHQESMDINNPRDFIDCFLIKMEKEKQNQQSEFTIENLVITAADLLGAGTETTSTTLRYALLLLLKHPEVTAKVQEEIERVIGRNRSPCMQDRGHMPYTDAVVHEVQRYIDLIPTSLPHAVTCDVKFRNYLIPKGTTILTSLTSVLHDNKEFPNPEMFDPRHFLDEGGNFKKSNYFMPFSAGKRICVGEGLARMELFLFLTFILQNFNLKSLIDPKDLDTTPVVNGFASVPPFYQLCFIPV

Take `Nc1ccn([C@@H]2CS[C@H](CO)O2)c(=O)n1` [3TC, lamivudine, reference compound]: in data set [1] (setting [10]), the “DRI Value ED75” value worked out at 2.83 ± 0.52, the “DRI Value ED90” value was found to be 3.28 ± 0.80 and the “DRI Value ED95” value came out at 3.64 ± 1.06.

`Cc1cn([C@H]2C[C@H](N=[N+]=[N-])[C@@H](CO)O2)c(=O)[nH]c1=O` [AZT, zidovudine, reference compound]: in [1] (setting [11]), the “DRI Value ED75” value is 4.88 ± 2.30, the “DRI Value ED90” value was determined as 5.60 ± 2.33 and the “DRI Value ED95” value was 6.52 ± 3.94.

Turning to `CC(C)CN(C[C@@H](O)[C@H](Cc1ccccc1)NC(=O)O[C@H]1CO[C@H]2OCC[C@H]21)S(=O)(=O)c1ccc(N)cc1` [DRV, darunavir, reference compound], in data set [1] (setting [12]), the “DRI Value ED75” value was 2.82 ± 0.21, the “DRI Value ED90” value is recorded as 3.41 ± 0.86 and the “DRI Value ED95” value is given as 3.93 ± 1.44.

For `C[C@@H]1CCO[C@H]2Cn3cc(C(=O)NCc4ccc(F)cc4F)c(=O)c(O)c3C(=O)N12` [DTG, dolutegravir, reference compound], in [1] (setting [13]), the “DRI Value ED75” value was determined as 2.37 ± 0.28, the “DRI Value ED90” value stood at 2.50 ± 0.41 and the “DRI Value ED95” value is on record as 2.61 ± 0.68.

With `Cc1cc(C#N)cc(C)c1Oc1nc(Nc2ccc(C#N)cc2)nc(N)c1Br` [ETR, etravirine, reference compound], the CC50 at 3 days in [2] is greater than 50 µM; in data set [3], 27.4 ± 5.46 µM; in data set [4], 30.4 ± 1.59 µM. For the same compound, the CC50 at 7 days in [5] turned out to be 34.5 ± 3.06 µM. Further, the EC50 was 0.00174 ± 0.00067 µM in the data set with HIV-1IIIB [6]; 0.00615 ± 0.00176 µM with HIV-1IIIB [7]; greater than 50 µM in data set [8] (Human immunodeficiency virus 1, HIV-1IIIB, H9/HIV-1IIIB chronically infected, p24); less than 0.00013 µM in the data set on HIV-1Yu-2(G140S/Q148H); 0.00656 ± 0.00489 µM in the data set with HIV-1IIIB [9] (C8166, p24, 20% human serum); 0.00209 ± 0.00065 µM in the data set on HIV-1IIIB [9] (C8166, p24, 40% human serum). Besides, in data set [8] (at a concentration of 50.00 µM), the “Inhibition of HIV-1 replication in HIV-1IIIB chronically infected H9 cells” value is “could not inhibit the replication”. The “DRI Value ED75” value in data set [1] (setting [14]) is on record as 2.44 ± 0.52. Moreover, the “DRI Value ED90” value in [1] (setting [14]) was found to be 2.20 ± 0.58. For the same compound, the “DRI Value ED95” value in data set [1] (setting [14]) was determined as 2.06 ± 0.61. The IC50 against CYP3A4M stood at 41.3 µM; at CYP1A2, 7.48 µM; against CYP2C9 it was 0.28 µM; at CYP2C19 it was 0.5 µM; on CYP2D6, 12 µM.

For `Nc1nc(=O)n([C@@H]2CS[C@H](CO)O2)cc1F` [FTC, emtricitabine, reference compound], in data set [1] (setting [15]), the “DRI Value ED75” value is 2.38 ± 0.10, the “DRI Value ED90” value is recorded as 2.22 ± 0.23 and the “DRI Value ED95” value is 2.11 ± 0.32.

On to `Cc1nnc(C(=O)NC(C)(C)c2nc(C(=O)NCc3ccc(F)cc3)c(O)c(=O)n2C)o1` [RAL, raltegravir, reference compound], for which, in data set [1], the “DRI Value ED75” value is recorded as 3.08 ± 1.11, the “DRI Value ED90” value was determined as 3.50 ± 1.64 and the “DRI Value ED95” value worked out at 3.83 ± 2.07.

In the case of `C[C@H](Cn1cnc2c(N)ncnc21)OCP(=O)(O)O` [TDF, tenofovir, reference compound], in data set [1] (setting [16]), the “DRI Value ED75” value was found to be 3.22 ± 0.71, the “DRI Value ED90” value is on record as 3.46 ± 0.35 and the “DRI Value ED95” value came out at 3.69 ± 0.66.

For the compound enfuvirtide [T-20, reference compound], in data set [1] (setting [17]), the “DRI Value ED75” value worked out at 2.05 ± 0.42, the “DRI Value ED90” value is 2.37 ± 0.18 and the “DRI Value ED95” value was 2.69 ± 0.66.

Regarding maraviroc [MVC, reference compound], in [1] (setting [18]), the “DRI Value ED75” value amounted to 4.58 ± 0.50, the “DRI Value ED90” value is 5.10 ± 0.83 and the “DRI Value ED95” value was 5.49 ± 1.09.

For “thioraviroc [DC521022, reference compound]”, in data set [1] (setting [19]), the “DRI Value ED75” value was 5.41 ± 4.21, the “DRI Value ED90” value is 7.32 ± 6.96 and the “DRI Value ED95” value is reported as 9.08 ± 9.61.
